For five molecules, Emax results are on record in patent US12404239B2, “Modulators of BCL6 as ligand directed degraders” (Celgene Corporation, priority 2022, dated 2025).

SMILES strings stand for the structures. Where only a bound is given, the exact number is not on record here.

The target of this assay is T1, BCL6 (Homo sapiens, UniProt P41182).
T1 construct: HiBiT-tag knocked into endogenous BCL6 locus using CRISPR; endogenous in cells; host or cells: DHL-4_BCL6_HiBiT cells (CRISPR knock-in)
Description: 24 h degradation assay (BCL6 HiBiT). The class given is cell-based. The settings on record: read-out: YCon (% remaining maximal effect). How it is done:
A DHL-4 cell line with HiBiT-tag knocked into endogenous BCL6 locus using CRISPR was generated. The DHL-4_BCL6_HiBiT cells were dispensed into 384-well plates (Corning no. 3570) that were pre-spotted with compounds. Compounds were dispensed by an acoustic dispenser (ATS acoustic transfer system from EDC Biosystems) into a 384-well plate in a 10-point dose response curve using 3-fold dilutions starting at 1-10 μM and going down to 0.0015-0.00015 μM. 25 μL of media (RPMI-1640+10% heat inactivated FBS+1×Pen/Strep) containing 2500 of DHL-4 was dispensed per well. […] After incubation, 25 μL of the Nano-Glo HiBiT lytic detection working solution (Promega, catalogue no. N3040, Madison, WI) was added to each well and incubated at room temperature for 15-30 min, protected from light. After 30 min, luminescence was read on an Envision or PHERAstar luminescence reader. To determine the EC50 value (the half-maximum effective concentration) and the level of the gradation (Yconstant) of a BCL6 degrader, luminescent signal normalized by DMSO control (Y) and compound concentration (x) was fitted using a four-parameter dose-response model (Y=(A+((B−A)/1+((C/x)^D) in Dotmatics. Fitted value C is the degradation EC50 and the minimum value A is the Y constant.
On the technique in general: With HiBiT, luminescence reflects the tagged protein that the partner subunit can reach.
In the case of `CO[C@@H]1CN(c2ncc(C#N)c(Nc3ccc4c(c3)CC(=O)N4C)n2)CC[C@H]1Nc1ccc2c(C3CCC(=O)NC3=O)nn(C)c2c1` (stereo partly drawn) [Example 145, 2-((3R,4R)-4-((3-(2,6-dioxopiperidin-3-yl)-1-methyl-1H-indazol-6-yl)amino)-3-methoxypiperidin-1-yl)-4-((1-methyl-2-oxoindolin-5-yl)amino) pyrimidine-5-carbonitrile], the Emax was 20 to 60%.
Turning to `C[C@@H]1C[C@H](N(C)c2ncc(Cl)c(Nc3ccc4c(c3)CC(=O)N4C)n2)CC(=O)N1c1ccc2c(C3CCC(=O)NC3=O)nn(C)c2c1` (stereo partly drawn) [Example 150, 3-(6-((2R,4S)-4-((5-chloro-4-((1-methyl-2-oxoindolin-5-yl)amino)pyrimidin-2-yl)(methyl)amino)-2-methyl-6-oxopiperidin-1-yl)-1-methyl-1H-indazol-3-yl) piperidine-2,6-dione], the Emax was 20 to 60%.
Regarding `C[C@H]1C[C@H](N(C)c2ncc(Cl)c(Nc3ccc4c(c3)CC(=O)N4C)n2)CC(=O)N1c1ccc2c(C3CCC(=O)NC3=O)nn(C)c2c1` (stereo partly drawn) [Example 153, 3-(6-((2S,4S)-4-((5-chloro-4-((1-methyl-2-oxoindolin-5-yl)amino)pyrimidin-2-yl)(methyl)amino)-2-methyl-6-oxopiperidin-1-yl)-1-methyl-1H-indazol-3-yl) piperidine-2,6-dione], the Emax was less than 20%.
In the case of `C[C@@H]1C[C@@H](N(C)c2ncc(Cl)c(Nc3ccc4c(c3)CC(=O)N4C)n2)CC(=O)N1c1ccc2c(C3CCC(=O)NC3=O)nn(C)c2c1` (stereo partly drawn) [Example 151, 3-(6-((2R,4R)-4-((5-chloro-4-((1-methyl-2-oxoindolin-5-yl)amino)pyrimidin-2-yl)(methyl)amino)-2-methyl-6-oxopiperidin-1-yl)-1-methyl-1H-indazol-3-yl) piperidine-2,6-dione] it was less than 20%; in that of `C[C@H]1C[C@@H](N(C)c2ncc(Cl)c(Nc3ccc4c(c3)CC(=O)N4C)n2)CC(=O)N1c1ccc2c(C3CCC(=O)NC3=O)nn(C)c2c1` (stereo partly drawn) [Example 152, 3-(6-((2S,4R)-4-((5-chloro-4-((1-methyl-2-oxoindolin-5-yl)amino)pyrimidin-2-yl)(methyl)amino)-2-methyl-6-oxopiperidin-1-yl)-1-methyl-1H-indazol-3-yl) piperidine-2,6-dione], greater than 60%.
